{"source": "patent US11986480B2", "about": "“Heterocyclic compound” (TOHOKU UNIVERSITY, priority 2017, dated 2024)", "key": {"[1]": {"molecular_target": "T1, Brd4 (Homo sapiens, UniProt O60885)", "experiment": "Test Example 3: HeLa cells, Western blot Brd4/actin (Testing Method C)", "type": "cell-based", "set-up": "endogenous in cells; host or cells: HeLa", "conditions": "24 hours, 1 or less = degradation promoted", "experimental": "Test Example 3: Evaluation Using HeLa Cell (Testing Method C)\n(§1) HeLa cells were inoculated to Dulbecco's Modified Eagle Medium (DMEM) and cultured for 24 hours. A test compound (specifically, compounds of Examples 47 to 52, 59 and 60) was added thereto at the final concentration shown in Table 2, followed by incubation for 24 hours under conditions of 37° C./5% CO2. The cells were washed with PBS three times and treated with a cell lysis solution containing a proteolytic enzyme inhibitor to obtain a cell extract. The cell extract was subjected to SDS-PAGE. After the electrophoresis, Brd4, FKBP12 or MetAP2 and actin were detected by Western blot. The ratio of the Brd4, FKBP12 or MetAP2/actin value of the drug-treated cells to the Brd4, FKBP12 or MetAP2/actin value of a control group in drug-untreated cells was regarded as an activity value. A value of 1 or less represents that degradation of Brd4, FKBP12 or MetAP2 was promoted."}, "[2]": {"molecular_target": "T1, Brd4", "experiment": "Test Example 4: A549 cells, Western blot Brd4/actin (Testing Method D)", "type": "cell-based", "set-up": "endogenous in cells", "conditions": "BRD4, 1 uM, 24 hours, 1 or less = degradation promoted", "experimental": "Test Example 4: Evaluation Using A549 Cell (Testing Method D)\nas §1, with “A549” for “HeLa”, “57” for “47 to 52, 59”, “58)” for “60)”, “Brd4” for “Brd4, FKBP12 or MetAP2”, “Brd4/actin” for “Brd4, FKBP12 or MetAP2/actin”"}, "[3]": {"system": "EmGFP-HaloTag", "experiment": "Test Example 2: HeLa cells transiently overexpressing EmGFP-HaloTag, Western blot GFP/actin (Testing Method B)", "type": "cell-based", "conditions": "24 hours, 1 or less = degradation promoted", "experimental": "Test Example 2: Evaluation Using Cell Transiently Overexpressing EmGFP-HaloTag (Testing Method B)\nHeLa cells were inoculated to Dulbecco's Modified Eagle Medium (DMEM) and cultured for 24 hours. Cells overexpressing EmGFP-HaloTag were obtained by transfection with a plasmid pCMV-EmGFP-HaloTag encoding EmGFP-HaloTag. On the next day, a test compound (specifically, compounds of Examples 8, 12, 16, 21 to 23, 28, 30 and 31) was added thereto at the final concentration shown in Table 2, followed by incubation for 24 hours under conditions of 37° C./5% CO2. The cells were washed with PBS three times and treated with a cell lysis solution containing a proteolytic enzyme inhibitor to obtain a cell extract. The cell extract was subjected to SDS-PAGE. After the electrophoresis, GFP and actin were detected by Western blot. The ratio of the GFP/actin value of the drug-treated cells to the GFP/actin value of a control group in drug-untreated cells was regarded as an activity value. A value of 1 or less represents that degradation of EmGFP-HaloTag was promoted."}, "[4]": {"system": "EmGFP-HaloTag", "experiment": "Test Example 1: HeLa cells stably expressing EmGFP-HaloTag, Western blot GFP/actin (Testing Method A)", "type": "cell-based", "conditions": "10 uM, 24 hours, 1 or less = degradation promoted", "experimental": "Test Example 1: Evaluation Method Using Cell Stably Expressing EmGFP-HaloTag (Testing Method A)\nHeLa cells stably expressing EmGFP-HaloTag were inoculated to Dulbecco's Modified Eagle Medium (DMEM) and cultured for 24 hours. Then, a test compound (specifically, compounds of Examples 1 to 7, 9 to 11, 13 to 15, 17 to 20, 24 to 27, 29, 32 to 33, 36 to 42, 44 to 46 and 56) was added thereto at the final concentration shown in Table 2, followed by incubation for 24 hours under conditions of 37° C./5% CO2. The cells were washed with PBS three times and treated with a cell lysis solution containing a proteolytic enzyme inhibitor to obtain a cell extract. The cell extract was subjected to SDS-PAGE. After the electrophoresis, GFP and actin were detected by Western blot. The ratio of the GFP/actin value of the drug-treated cells to the GFP/actin value of a control group in drug-untreated cells was regarded as an activity value. A value of 1 or less represents that degradation of EmGFP-HaloTag was promoted."}, "[5]": {"system": "EmGFP-HaloTag", "experiment": "Test Example 5: Atg5-/- MEF cells overexpressing EmGFP-HaloTag, Western blot GFP/actin", "type": "cell-based, mouse", "conditions": "Atg5 KO MEF, 10 μM", "experimental": "(§2) Test Example 5: Evaluation Using Atg5KO MEF\n(§3) Atg5^−/− mouse embryonic fibroblast (MEF) cells or Atg5^+/+ MEF cells were inoculated to Dulbecco's Modified Eagle Medium (DMEM) and cultured for 24 hours. Cells overexpressing EmGFP-HaloTag were obtained by transfection with a plasmid pCMV-EmGFP-HaloTag (SEQ ID NO: 1) encoding EmGFP-HaloTag. On the next day, the compound of Example 56 was added thereto at a final concentration of 10 μM, followed by incubation for 24 hours under conditions of 37° C./5% CO2. The cells were washed with PBS three times and treated with a cell lysis solution containing a proteolytic enzyme inhibitor to obtain a cell extract. The cell extract was subjected to SDS-PAGE. After the electrophoresis, GFP and actin were detected by Western blot. The ratio of the GFP/actin value of the drug-treated cells to the GFP/actin value of a control group in drug-untreated cells was regarded as an activity value. A value of 1 or less represents that degradation of EmGFP-HaloTag was promoted."}, "[6]": {"system": "EmGFP-HaloTag", "experiment": "Test Example 5: Atg5+/+ MEF cells overexpressing EmGFP-HaloTag, Western blot GFP/actin", "type": "cell-based, mouse", "conditions": "Atg5 WT MEF, 10 μM", "experimental": "as §2, §3"}}}
{"compound": "CC(=O)N[C@@H](CSc1nc2c(=O)[nH]c(N)nc2n1Cc1ccc(C)cc1)C(=O)NCCOCCOCCOCCNC(=O)C[C@@H]1N=C(c2ccc(Cl)cc2)c2c(sc(C)c2C)-n2c(C)nnc21", "note": "[Example 49, N^2-Acetyl-S-(2-amino-9-(4-methylbenzyl)-6-oxo-6,9-dihydro-1H-purin-8-yl)-N-(14-((6S)-4-(4-chlorophenyl)-2,3,9-trimethyl-6H-thieno[3,2-f][1,2,4]triazolo[4,3-a][1,4]diazepin-6-yl)-13-oxo-3,6,9-trioxa-12-azatetradec-1-yl)-L-cysteinamide]", "values": [{"measurement": "Activity value (Brd4/actin of drug-treated cells relative to drug-untreated control)", "setting": "[1]; BRD4, 1 uM", "value": 0.8}]}
{"compound": "Cc1sc2c(c1C)C(c1ccc(Cl)cc1)=N[C@@H](CC(=O)NCCCOCCOCCOCCCNc1nc3c(=O)[nH]c(N)nc3n1Cc1ccc(F)cc1)c1nnc(C)n1-2", "note": "[Example 58, N-(3-(2-(2-(3-((2-Amino-9-(4-fluorobenzyl)-6-oxo-6,9-dihydro-1H-purin-8-yl)amino)propoxy)ethoxy)ethoxy)propyl)-2-((6S)-4-(4-chlorophenyl)-2,3,9-trimethyl-6H-thieno[3,2-f][1,2,4]triazolo[4,3-a][1,4]diazepin-6-yl)acetamide]", "values": [{"measurement": "Activity value (Brd4/actin of drug-treated cells relative to drug-untreated control)", "setting": "[2]", "value": 0.8}]}
{"compound": "Cc1sc2c(c1C)C(c1ccc(Cl)cc1)=N[C@@H](CC(=O)NCCOCCOCCOCCNC(=O)/C=C/c1nc3c(=O)[nH]c(N)nc3n1Cc1ccc(F)cc1)c1nnc(C)n1-2", "note": "[Example 52, (2E)-3-(2-Amino-9-(4-fluorobenzyl)-6-oxo-6,9-dihydro-1H-purin-8-yl)-N-(14-((6S)-4-(4-chlorophenyl)-2,3,9-trimethyl-6H-thieno[3,2-f][1,2,4]triazolo[4,3-a][1,4]diazepin-6-yl)-13-oxo-3,6,9-trioxa-12-azatetradec-1-yl)acrylamide]", "values": [{"measurement": "Activity value (Brd4/actin of drug-treated cells relative to drug-untreated control)", "setting": "[1]; BRD4, 10 uM", "value": 0.8}]}
{"compound": "CC(=O)N[C@@H](CSc1nc2c(=O)[nH]c(N)nc2n1Cc1ccc(Cl)cc1)C(=O)NCCOCCOCCOCCNC(=O)C[C@@H]1N=C(c2ccc(Cl)cc2)c2c(sc(C)c2C)-n2c(C)nnc21", "note": "[Example 50, N^2-Acetyl-S-(2-amino-9-(4-chlorobenzyl)-6-oxo-6,9-dihydro-1H-purin-8-yl)-N-(14-((6S)-4-(4-chlorophenyl)-2,3,9-trimethyl-6H-thieno[3,2-f][1,2,4]triazolo[4,3-a][1,4]diazepin-6-yl)-13-oxo-3,6,9-trioxa-12-azatetradec-1-yl)-L-cysteinamide]", "values": [{"measurement": "Activity value (Brd4/actin of drug-treated cells relative to drug-untreated control)", "setting": "[1]; BRD4, 1 uM", "value": 0.2}]}
{"compound": "CC(=O)N[C@@H](CSc1nc2c(=O)[nH]c(N)nc2n1C1CCCC1)C(=O)NCCOCCOCCOCCOCCOCCCCCCCl", "note": "[Example 12, N^2-Acetyl-S-(2-amino-9-cyclopentyl-6-oxo-6,9-dihydro-1H-purin-8-yl)-N-(21-chloro-3,6,9,12,15-pentaoxahenicos-1-yl)-L-cysteinamide]", "values": [{"measurement": "Activity value (GFP/actin of drug-treated cells relative to drug-untreated control)", "setting": "[3]; 10 uM", "value": 0.45}]}
{"compound": "Cc1sc2c(c1C)C(c1ccc(Cl)cc1)=N[C@@H](CC(=O)NCCOCCOCCOCCNC(=O)c1cccc(-c3nc4c(=O)[nH]c(N)nc4n3Cc3ccc(F)cc3)c1)c1nnc(C)n1-2", "note": "[Example 48, 3-(2-Amino-9-(4-fluorobenzyl)-6-oxo-6,9-dihydro-1H-purin-8-yl)-N-(14-((6S)-4-(4-chlorophenyl)-2,3,9-trimethyl-6H-thieno[3,2-f][1,2,4]triazolo[4,3-a][1,4]diazepin-6-yl)-13-oxo-3,6,9-trioxa-12-azatetradec-1-yl)benzamide]", "values": [{"measurement": "Activity value (Brd4/actin of drug-treated cells relative to drug-untreated control)", "setting": "[1]; BRD4, 10 uM", "value": 0.8}]}
{"compound": "Cc1sc2c(c1C)C(c1ccc(Cl)cc1)=N[C@@H](CC(=O)NCCOCCOCCOCCNC(=O)c1nc3c(=O)[nH]c(N)nc3n1Cc1ccc(F)cc1)c1nnc(C)n1-2", "note": "[Example 47, 2-Amino-N-(14-((6S)-4-(4-chlorophenyl)-2,3,9-trimethyl-6H-thieno[3,2-f][1,2,4]triazolo[4,3-a][1,4]diazepin-6-yl)-13-oxo-3,6,9-trioxa-12-azatetradec-1-yl)-9-(4-fluorobenzyl)-6-oxo-6,9-dihydro-1H-purine-8-carboxamide]", "values": [{"measurement": "Activity value (Brd4/actin of drug-treated cells relative to drug-untreated control)", "setting": "[1]; BRD4, 1 uM", "value": 0.4}]}
{"compound": "CC(=O)N[C@@H](CSc1nc2c(=O)[nH]c(N)nc2n1Cc1ccc(F)cc1)C(=O)NCCOCCOCCOCCOCCOCCCCCCCl", "note": "[Example 56, N^2-Acetyl-S-(2-amino-9-(4-fluorobenzyl)-6-oxo-6,9-dihydro-1H-purin-8-yl)-N-(21-chloro-3,6,9,12,15-pentaoxahenicos-1-yl)-L-cysteinamide]", "values": [{"measurement": "Activity value (GFP/actin of drug-treated cells relative to drug-untreated control)", "setting": "[4]", "value": 0.55}, {"measurement": "Activity value (GFP/actin of drug-treated cells relative to drug-untreated control)", "setting": "[5]; 0h", "value": 1.0}, {"measurement": "Activity value (GFP/actin of drug-treated cells relative to drug-untreated control)", "setting": "[5]; 24 h", "value": 1.1}, {"measurement": "Activity value (GFP/actin of drug-treated cells relative to drug-untreated control)", "setting": "[6]; 0h", "value": 1.0}, {"measurement": "Activity value (GFP/actin of drug-treated cells relative to drug-untreated control)", "setting": "[6]; 24 h", "value": 0.3}]}
{"compound": "CC(=O)N[C@@H](CSc1nc2c(=O)[nH]c(N)nc2n1Cc1ccc(F)cc1)C(=O)NCCOCCOCCOCCNC(=O)C[C@@H]1N=C(c2ccc(Cl)cc2)c2c(sc(C)c2C)-n2c(C)nnc21", "note": "[Example 51, N^2-Acetyl-S-(2-amino-9-(4-fluorobenzyl)-6-oxo-6,9-dihydro-1H-purin-8-yl)-N-(14-((6S)-4-(4-chlorophenyl)-2,3,9-trimethyl-6H-thieno[3,2-f][1,2,4]triazolo[4,3-a][1,4]diazepin-6-yl)-13-oxo-3,6,9-trioxa-12-azatetradec-1-yl)-L-cysteinamide]", "values": [{"measurement": "Activity value (Brd4/actin of drug-treated cells relative to drug-untreated control)", "setting": "[1]; BRD4, 1 uM", "value": 0.6}]}
{"compound": "CC(=O)N[C@@H](CSc1nc2c(=O)[nH]c(N)nc2n1Cc1ccc(F)cc1)C(=O)NCCCOCCOCCOCCCNC(=O)C[C@@H]1N=C(c2ccc(Cl)cc2)c2c(sc(C)c2C)-n2c(C)nnc21", "note": "[Example 57, N^2-Acetyl-S-(2-amino-9-(4-fluorobenzyl)-6-oxo-6,9-dihydro-1H-purin-8-yl)-N-(1-((6S)-4-(4-chlorophenyl)-2,3,9-trimethyl-6H-thieno[3,2-f][1,2,4]triazolo[4,3-a][1,4]diazepin-6-yl)-2-oxo-7,10,13-trioxa-3-azahexadecan-16-yl)-L-cysteinamide]", "values": [{"measurement": "Activity value (Brd4/actin of drug-treated cells relative to drug-untreated control)", "setting": "[2]", "value": 0.9}]}
{"compound": "Nc1nc2c(nc(CCCOCCOCCOCCOCCOCCOCCCCCCCl)n2Cc2ccc(F)cc2)c(=O)[nH]1", "note": "[Example 31, 2-Amino-8-(25-chloro-4,7,10,13,16,19-hexaoxapentacos-1-yl)-9-(4-fluorobenzyl)-1,9-dihydro-6H-purin-6-one]", "values": [{"measurement": "Activity value (GFP/actin of drug-treated cells relative to drug-untreated control)", "setting": "[3]; 1 uM", "value": 0.4}]}
